The values below come from patent US20240316093A1, “NEPHROTOXICITY REDUCING AGENT” (NIPPON SHINYAKU CO., LTD., priority 2021, published 2024).

In data set [1] the test system is kidney of C57BL/6J male mice. The settings on record: mouse, in vivo.
Description: The obtained dosing solutions were administered into the tail vein of 6-week-old C57BL/6J male mice (N=5) at 20 mL/kg. Next day, the mice were subjected to autopsy, and formalin-fixed paraffin-embedded samples of the respective kidneys were prepared. Sections obtained by slicing the samples were subjected to hematoxylin-eosin staining and a histopathological test of the sections was performed.
Data set [2] has as its system C57BL/6J male mice. The data set is described as follows: BUN and Cre values in serum after tail-vein administration of PMO dosing solutions with or without sucrose (Example 2). To be noted: Example 2, PMO Nos. 8 and 9 with sucrose.
Description: (§1) The obtained dosing solutions were administered into the tail vein of 6-week-old C57BL/6J male mice (N=3) at 10 and 12 mL/kg. Next day, serum was collected from the mice, and the blood urea nitrogen (BUN) values and blood creatinine (Cre) values were measured with the urease-GIDH method and the enzymatic method, respectively, using an automatic biochemical analyzer JCA-BM8060 (manufactured by JEOL Ltd.). […] Sections obtained by slicing the samples were subjected to hematoxylin-eosin staining and a histopathological test of the sections was performed.
For data set [3], the system named is C57BL/6J male mice. Kind of data set: BUN and Cre values in serum after tail-vein administration of PMO dosing solutions with or without sucrose or trehalose (Example 5). The settings on record: Example 5, PMO Nos. 1, 8 and 9 with sucrose or trehalose.
Description: Also, the antisense oligomers of PMO Nos. 1, 8, and 9 were each dissolved in water for injection comprising 0.9% sodium chloride, and a solution obtained by dissolving trehalose (manufactured by FUJIFILM Wako Pure Chemical Corporation) with physiological saline was added thereto to prepare a dosing solution comprising each of the antisense oligomers and trehalose at the concentrations shown in Tables 15 to 17.
The obtained dosing solutions were administered into the tail vein of 6-week-old C57BL/6J male mice (N=2 to 3) at 20 mL/kg. Next day, serum was collected from the mice, and the blood urea nitrogen (BUN) values and blood creatinine (Cre) values were measured with the urease-GIDH method and the enzymatic method, respectively, using an automatic biochemical analyzer JCA-BM8060 (manufactured by JEOL Ltd.).
For data set [4], the system named is kidney of C57BL/6J male mice. Kind of data set: Histopathological test of kidney (hematoxylin-eosin) after PMO No. 8 with or without sucrose (Example 2). The settings on record: Example 2, histopathological test, PMO No. 8 with sucrose.
Description: as §1
Data set [5] is described as follows: Precipitation suppressing effect of trehalose, absorbance at 620 nm in the presence of ions assumed to be in urine (Example 7). To be noted: Example 7, PMO Nos. 1, 2, 7, 8; aqueous solution of trehalose versus water for injection; KCl and NaCl, 37° C. It counts as physicochemical.
Description: Each of the antisense oligomers was dissolved in water for injection or an aqueous solution of trehalose, and the mixture was then mixed with an aqueous solution comprising potassium chloride and sodium chloride assumed to be in urine. The absorbance at 620 nm of the solution thus mixed was measured using a plate reader, Infinite F200 Pro (manufactured by Tecan Group Ltd.) under the heating condition of 37° C. […] Accordingly, conditions were set under which the precipitation was observed using water for injection as a medium for each sequence. Another measurement was performed under the same conditions as obtained except that only the medium was changed to an aqueous solution of trehalose, and then the absorbance obtained under both the conditions was compared to each other. When the absorbance was increased, precipitation was determined to be observed, and a time until the precipitation was observed and the increased value of the absorbance were evaluated. When the aqueous solution of trehalose was used as the medium, it was determined that the precipitation suppressing effect was presented in a case where the time until the precipitation was observed was longer or in a case where the increased value of the absorbance was smaller than the case of using the water for injection as the medium.

Consider `OC[C@H]1O[C@@](CO)(O[C@H]2O[C@H](CO)[C@@H](O)[C@H](O)[C@H]2O)[C@@H](O)[C@@H]1O` [sucrose], for which the “Nephrotoxicity reducing effect (toxicological findings on the histopathological test of the kidney)” value in data set [1] is listed as “confirmed to reduce nephrotoxicity”. Besides, the “Nephrotoxicity reducing effect (BUN values and Cre values versus control dosing solution comprising no sucrose)” value in the data set with C57BL/6J male mice [2] was “confirmed to reduce nephrotoxicity”. In addition, the “Nephrotoxicity reducing effect (BUN values and Cre values versus dosing solution comprising neither sucrose nor trehalose)” value in the data set with C57BL/6J male mice [3] is on record as “confirmed to reduce nephrotoxicity”. For the same compound, in data set [4], the “Amount of precipitates (basophilic substances in the lumens of renal tubules)” value is recorded as “amount of precipitates decreased according to the concentrations of sucrose”.

Take `OC[C@H]1O[C@H](O[C@H]2O[C@H](CO)[C@@H](O)[C@H](O)[C@H]2O)[C@H](O)[C@@H](O)[C@@H]1O` [trehalose]: in the data set with C57BL/6J male mice [3], the “Nephrotoxicity reducing effect (BUN values and Cre values versus dosing solution comprising neither sucrose nor trehalose)” value was “confirmed to reduce nephrotoxicity”. Also, the “Precipitation suppressing effect (time until the precipitation was observed, increase of the absorbance at 620 nm)” value in data set [5] was “suppress the precipitation of antisense oligomers”.
